# Assay: Double-blind placebo-controlled tolerability study of single and multiple ascending doses in healthy subjects (Example 6)
# Type: in vivo
# Conditions: for ALT / AST: one subject
# Source text: The main objective of this study was to evaluate the tolerability of single and multiple ascending doses of Hydronidone in healthy subjects to support further Phase 1 studies as well to provide supportive information for dosage regimen in Phase II clinical trials.
# This was a randomized, double-blind, placebo-controlled, in-patient study of single and multiple escalating doses of Hydronidone in healthy Chinese male and female subjects, 18-45 years of age, satisfying all inclusion and exclusion criteria. Hydronidone 100 mg and 200 mg capsule dosage strengths were used in the study. In every cohort, the subjects were randomly assigned to Hydronidone or placebo at a ratio of 3:1.
# The single-dose component of the trial included 30 subjects that received 100 mg, 200 mg, 400 mg, 600 mg and 800 mg of Hydronidone, respectively (6 subjects/cohort). The post-dose observations were performed 24 hrs following the dosing. All subjects have completed the trial. […] Mild transient dizziness following administration of the test article was reported in one subject in each of the 800 mg Hydronidone and placebo cohorts. The dizziness resolved on its own, without sequelae. The post-dose values of some of the laboratory parameters were abnormal, both in Hydronidone and placebo groups. However, these changes were not considered clinically significant.
# The multiple-dose component of the trial included 20 subjects assigned to receive 600 mg (8 subjects) three times per day (TID) (total daily dose of 1800 mg), or 800 mg of Hydronidone (12 subjects) TID (total daily dose of 2400 mg) for ten (10) consecutive days. Due to several cases of AEs of hypertriglyceridemia (4 out of 8 subjects) observed in the Hydronidone 600 mg TID dose group, the subjects (n=8) in the Hydronidone TID 800 mg dose group were divided into two subgroups, each comprising of 4 subjects. […] Due to inadvertent omission of the blood glucose test in the first sub-group (all four subjects) of the Hydronidone 800 mg TID dose group at the final study visit, per Principal Investigator decision, the enrollment was extended to include new four (4) subjects, increasing the total number of subjects in this dose group to 12. The safety evaluations were performed pre-dose, on the Day 5 of dosing, and 24 hr after the last dose of the 10-day dosing period.
# [1] = 800 mg TID, fifth day of dosing
# [2] = 800 mg TID, repeated test on study day 6
compound,measurement,setting,value
"Cc1ccc(=O)n(-c2ccc(O)cc2)c1 [Hydronidone, N-(4-hydroxyphenyl)-5-Methyl-2-pyridone]",instances of hypertriglyceridemia,"600 mg TID, 10 days",3 instances
same,number of AEs reported,"600 mg TID, 10 days",7 AEs
same,instances of hyperlipidemia,"800 mg TID, 10 days",3 instances
same,instances of liver dysfunction,"800 mg TID, 10 days",3 instances
same,number of AEs reported,"800 mg TID, 10 days",14 AEs
same,deaths and SAEs,"multiple-dose component, 600 or 800 mg TID, 10 days",No deaths nor SAEs were reported
same,ALT,[1],79 U/L
same,AST,[1],47 U/L
same,ALT,[2],101 U/L
same,AST,[2],61 U/L
same,subjects with mild transient dizziness,single dose 800 mg cohort,one
same,safety and tolerability,"single dose 100, 200, 400, 600, 800 mg, healthy subjects",safe and well tolerated at all doses tested
same,deaths and serious adverse events,single-dose component,No deaths nor serious adverse events (SAEs) were reported

# Source: patent publication US20240277682A1, “PHARMACEUTICAL HYDRONIDONE FORMULATIONS FOR DISEASES” (Gyre Therapeutics, Inc., priority 2021, published 2024)
